In patent US11078203B2 (OGEDA SA, priority 2017, dated 2021) one finds Ki and IC50 data, which are given here for one compound.

Experiment [1] concerns the target T1, human NK-3 receptor (Homo sapiens, UniProt P29371).
T1 sequence (P29371 1-465): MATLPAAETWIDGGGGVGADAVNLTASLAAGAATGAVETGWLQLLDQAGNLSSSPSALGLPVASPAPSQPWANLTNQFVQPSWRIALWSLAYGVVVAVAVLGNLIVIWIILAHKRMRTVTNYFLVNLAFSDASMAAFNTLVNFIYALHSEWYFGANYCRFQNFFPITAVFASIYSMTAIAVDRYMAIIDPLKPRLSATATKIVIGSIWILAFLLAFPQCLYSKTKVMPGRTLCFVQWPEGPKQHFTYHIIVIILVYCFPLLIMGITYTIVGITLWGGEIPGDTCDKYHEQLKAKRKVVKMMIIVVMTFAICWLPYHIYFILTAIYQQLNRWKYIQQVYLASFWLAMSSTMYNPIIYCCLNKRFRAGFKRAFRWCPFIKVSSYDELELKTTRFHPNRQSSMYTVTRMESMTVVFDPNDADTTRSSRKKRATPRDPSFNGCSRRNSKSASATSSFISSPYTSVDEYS
The experiment can be described thus: 3H-SB222200 binding competition assay with human NK-3 receptor. Further details: expressed in transfected cells; membranes. The conditions noted are these: read-out: Competitive binding assay with human NK-3 receptor hNK-3 (Ki). Here is the method: The affinity of compounds of the invention for the human NK-3 receptor was determined by measuring the ability of compounds of the invention to competitively and reversibly displace a well-characterized NK-3 radioligand in a concentration-dependent manner.
Membranes were prepared from Chinese hamster ovary recombinant cells stably expressing the human NK-3 receptor. The membranes were incubated with 5 nM ^3H-SB222200 (ARC) in a HEPES 25 mM/NaCl 0.1M/CaCl2 1 mM/MgCl2 5 mM/BSA 0.5%/Saponin 10 μg/ml buffer at pH 7.4 and various concentrations of compounds of the invention. The amount of ^3H-SB222200 bound to the receptor was determined after filtration by the quantification of membrane associated radioactivity using the TopCount-NXT reader (Packard).

Experiment [2] addresses T1, human NK-3 receptor. Description: cell-based.
Protocol: Aequorin Assay with Human NK-3 Receptor.
The efficacy of compounds of the invention to inhibit NKA-mediated NK-3 receptor activation was assessed by an in vitro Aequorin functional assay. Chinese Hamster Ovary recombinant cells expressing the human NK-3 receptor and a construct that encodes the photoprotein apoaequorin were used for this assay. In the presence of the cofactor coelenterazine, apoaequorin emits a measurable luminescence that is proportional to the amount of intracellular (cytoplasmic) free calcium.
The antagonist activity of compounds of the invention is measured following pre-incubation (3 minutes) of the compound (at various concentrations) with the cells, followed by addition of the reference agonist (NKA) at a final concentration equivalent to the EC80 (3 nM) and recording of emitted light (FDSS 6000 Hamamatsu) over the subsequent 90-second period. The intensity of the emitted light is integrated using the reader software. Compound antagonist activity is measured based on the concentration-dependent inhibition of the luminescence response to the addition of Neurokinin A.

Broadly, the Ki is the dissociation constant of the complex between target and ligand, obtained from inhibition or displacement. For orientation: IC50 means the midpoint of a concentration-inhibition curve. A low value points to greater potency in that assay. Turning to `[2H]C([2H])([2H])c1nsc(-c2nnc3n2CCN(C(=O)c2ccc(F)cc2)[C@@H]3C)n1` [Deuterated fezolinetant, (R)-(4-fluorophenyl)-(8-methyl-3-(3-(methyl-d3)-1,2,4-thiadiazol-5-yl)-5,6-dihydro-[1,2,4]trizolo[4,3-a]pyrazin-7(8H)-yl)methanone], the Ki on human NK-3 receptor [1] amounted to 17 nM. Moreover, the midpoint of inhibition against human NK-3 receptor [2], the IC50, lay at 13 nM.
